Reference: patent US7291621B2, “Substituted biaryl amides C5a receptor modulators” (Neurogen Corporation, priority 2002, dated 2007)
Read-outs that look alike come from different tables or passages of the source.

Target: T1, C5a receptor (Homo sapiens, UniProt P21730)
T1 construct: endogenous in cells; host or cells: U937 cells differentiated with 1 mM dibutyryl cAMP
T1 sequence (P21730 1-350): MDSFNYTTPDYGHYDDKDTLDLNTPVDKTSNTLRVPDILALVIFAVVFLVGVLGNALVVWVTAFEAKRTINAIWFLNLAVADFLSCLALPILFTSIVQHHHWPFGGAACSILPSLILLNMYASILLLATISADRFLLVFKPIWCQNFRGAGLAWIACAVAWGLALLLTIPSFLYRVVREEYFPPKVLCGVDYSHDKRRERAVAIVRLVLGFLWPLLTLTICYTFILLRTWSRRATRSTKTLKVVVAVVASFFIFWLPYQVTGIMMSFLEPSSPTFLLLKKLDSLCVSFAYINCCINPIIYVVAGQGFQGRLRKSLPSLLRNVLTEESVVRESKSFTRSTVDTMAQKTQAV
Experiment: standard assay of C5a receptor mediated calcium mobilization
Assay type: cell-based
Settings: asterisk = tested in C5a receptor mediated calcium mobilization assay, read-out: Ca2+ Mob.
Protocol: U937 cells are grown in differentiation media (1 mM dibutyrl cAMP in RPMI 1640 medium containing 10% fetal bovine serum) for 48 hrs at 37° C. then reseeded onto 96-well plates suitable for use in a FLIPR™ Plate Reader (Molecular Devices Corp., Sunnyvale Calif.). Cells are grown an additional 24 hours (to 70-90% confluence) before the assay. The cells are then washed once with Krebs Ringer solution. FLUO-3 calcium sensitive dye (Molecular Probes, Inc. Eugene, Oreg.) is added to 10 μg/mL and incubated with the cells at room temperature for 1 to 2 hours. The 96 well plates are then washed to remove excess dye. Fluorescence responses, measured by excitation at 480 nm and emission at 530 nm, are monitored upon the addition of human C5a to the cells to a final concentration of 0.01-30.0 nM, using the FLIPR™ device (Molecular Devices).
The calcium mobilization assay described above may be readily adapted for identifying test compounds that have agonist or antagonist activity at the human C5a receptor.
For example, in order to identify antagonist compounds, differentiated U937 cells are washed and incubated with Fluo-3 dye as described above. One hour prior to measuring the fluorescence signal, a subset of the cells is incubated with 1 μM of at least one compound to be tested. The fluorescence response upon the subsequent addition of 0.3 nM (final concentration) human recombinant C5a is monitored using the FLIPR™ plate reader. Antagonist compounds elicit at least a 2-fold decrease in the fluorescence response relative to that measured in the presence of human C5a alone. Preferred antagonist compounds elicit at least a 5-fold, preferably at least a 10-fold, and more preferably at least a 20-fold decrease in the fluorescence response relative to that measured in the presence of human C5a alone.

Row | Compound | Ki (Table I) | Ki (Table III)
1 | O=C(c1ccccc1-c1ccccc1)N(Cc1ccccc1)Cc1ccccc1 [compound 47, N,N-dibenzyl-1,1′-biphenyl-2-carboxamide] | < 1000 nM | 
2 | O=C(c1ccccc1-c1ccsc1)N(Cc1ccccc1)Cc1ccccc1 [compound 41, N,N-dibenzyl-2-thien-3-ylbenzamide] | < 1000 nM | 
3 | COc1ccc(CN(C(=O)c2ccccc2-c2ccsc2)C2Cc3ccccc3C2)cc1 [compound 83, N-(indan-2-yl)-N-(4-methoxybenzyl)-2-thien-3-ylbenzamide] | < 1000 nM | 
4 | O=C(c1ccccc1-c1cccc(F)c1)N(Cc1ccccc1)Cc1ccccc1 [compound 39, N,N-dibenzyl-3′-fluoro-1,1′-biphenyl-2-carboxamide] | < 1000 nM | 
5 | O=C(c1cc(Cl)ccc1-c1ccccc1)N(Cc1ccccc1)Cc1ccc2c(c1)OCC2 [compound 144, N-benzyl-4-chloro-N-(2,3-dihydro-1-benzofuran-6-ylmethyl)-1,1′-biphenyl-2-carboxamide] | < 1000 nM | 
6 | O=C(c1ccccc1-c1ccc(F)cc1)N(Cc1ccccc1)Cc1ccccc1 [compound 34, N,N-dibenzyl4′-fluoro-1,1′-biphenyl-2-carboxamide] | < 1000 nM | 
7 | COc1cc(CN(C(=O)c2ccccc2-c2ccsc2)C2Cc3ccccc3C2)cc(OC)c1 [compound 84, N-(indan-2-yl)-N-(3,5-dimethoxybenzyl)-2-thien-3-ylbenzamide] | < 1000 nM | 
8 | Cc1ccc(-c2ccccc2C(=O)N(Cc2ccccc2)Cc2ccc(OC(F)F)cc2)s1 [compound 148, N-benzyl-N-[4-(difluoromethoxy)benzyl]-2-(5-methylthien-2-yl)benzamide] | < 1000 nM | 
9 | O=C(c1ccccc1-c1ccc(Cl)cc1)N(Cc1ccccc1)Cc1ccccc1 [compound 50, N,N-dibenzyl-4′-chloro-1,1′-biphenyl-2-carboxamide] | < 1000 nM | 
10 | Cc1ccc(-c2ccccc2C(=O)N(Cc2ccccc2)Cc2cc(C)c(O)c(C)c2)s1 [compound 147, N-benzyl-N-(4-hydroxy-3,5-dimethylbenzyl)-2-(5-methylthien-2-yl)benzamide] | < 1000 nM | 
11 | COc1ccc2ccccc2c1C(=O)N(CCc1ccccc1)C1Cc2ccccc2C1 [compound 220, 2-Methoxy-naphthalene-1-carboxylic acid indan-2-yl-phenethyl-amide] |  | < 1000 nM
12 | O=C(c1ccccc1-c1ccccc1F)N(Cc1ccccc1)C1CCc2ccccc21 (centres unmarked) [compound 61, N-benzyl-N-(indan-1-yl)-2′-fluoro-1,1′-biphenyl-2-carboxamide] | < 1000 nM | 
13 | Cc1ccc(CN(C(=O)c2c(O)ccc3ccccc23)C2Cc3ccccc3C2)cc1 [compound 238, 2-Hydroxy-naphthalene-1-carboxylic acid (4-methyl-benzyl)-indan-2-yl-amide] |  | < 1000 nM
14 | COc1ccc(-c2ccccc2C(=O)N(Cc2ccccc2)Cc2ccccc2)c(OC)c1 [compound 45, N,N-dibenzyl-2′,4′-dimethoxy-1,1′-biphenyl-2-carboxamide] | < 1000 nM | 
15 | COc1cccc(CN(C(=O)c2cc(OC)ccc2-c2ccsc2)C2Cc3ccccc3C2)c1 [compound 104, N-(indan-2-yl)-5-methoxy-N-(3-methoxybenzyl)-2-thien-3-ylbenzamide] | < 1000 nM | 
16 | O=C(c1c(O)ccc2ccccc12)N(Cc1ccccc1F)C1Cc2ccccc2C1 [compound 237, 2-Hydroxy-naphthalene-1-carboxylic acid (2-fluoro-benzyl)-indan-2-yl-amide] |  | < 1000 nM
17 | Cc1ccc(-c2ccccc2C(=O)N(Cc2ccccc2)Cc2ccccc2)cc1 [compound 55, N,N-dibenzyl-4′-methyl-1,1′-biphenyl-2-carboxamide] | < 1000 nM | 
18 | COc1ccccc1CN(C(=O)c1ccccc1-c1ccccc1F)C1Cc2ccccc2C1 [compound 82, N-(indan-2-yl)-2′-fluoro-N-(2-methoxybenzyl)-1,1′-biphenyl-2-carboxamide] | < 1000 nM | 
19 | COc1ccc(-c2ccccc2C(=O)N(Cc2ccccc2)Cc2ccccc2)cc1 [compound 44, N,N-dibenzyl-4′-methoxy-1,1′-biphenyl-2-carboxamide] | < 1000 nM | 

More lines, now with the values ahead:

Row | Ki (Table I) | Ki (Table III) | Compound
20 | < 1000 nM |  | Cc1cccc(-c2ccccc2)c1C(=O)N(Cc1ccccc1)C1Cc2ccccc2C1 [compound 113, N-benzyl-N-(indan-2-yl)-3-methyl-1,1′-biphenyl-2-carboxamide]
21 | < 1000 nM |  | O=C(c1cc(O)ccc1-c1ccccc1)N(Cc1ccccc1)C1Cc2ccccc2C1 [compound 68, N-benzyl-N-(indan-2-yl)-4-hydroxy-1,1′-biphenyl-2-carboxamide]
22 | < 1000 nM |  | O=C(c1cc(Cl)ccc1-c1ccccc1)N(Cc1cccc(F)c1)C1Cc2ccccc2C1 [compound 135, 4-chloro-N-(indan-2-yl)-N-(3-fluorobenzyl)-1,1′-biphenyl-2-carboxamide]
23 | < 1000 nM |  | Cc1ccccc1CN(C(=O)c1ccccc1-c1ccccc1)C1Cc2ccccc2C1 [compound 73, N-(indan-2-yl)-N-(2-methylbenzyl)-1,1′-biphenyl-2-carboxamide]
24 | < 1000 nM |  | Cc1ccc(CN(C(=O)c2c(C)cccc2-c2ccccc2)C2Cc3ccccc3C2)cc1 [compound 122, N-(indan-2-yl)-3-methyl-N-(4-methylbenzyl)-1,1′-biphenyl-2-carboxamide]
25 | < 1000 nM |  | COc1cccc(-c2ccccc2C(=O)N(Cc2ccc(F)cc2)C2Cc3ccccc3C2)c1 [compound 92, N-(indan-2-yl)-N-(4-fluorobenzyl)-3′-methoxy-1,1′-biphenyl-2-carboxamide]
26 | < 1000 nM |  | COc1cccc(-c2ccccc2C(=O)N(Cc2ccccc2)C2Cc3ccccc3C2)c1 [compound 62, N-benzyl-N-(indan-2-yl)-3′-methoxy-1,1′-biphenyl-2-carboxamide]
27 | < 1000 nM |  | O=C(c1c(F)cccc1-c1ccccc1)N(Cc1ccccc1)C1Cc2ccccc2C1 [compound 112, N-benzyl-N-(indan-2-yl)-3-fluoro-1,1′-biphenyl-2-carboxamide]
28 | < 1000 nM |  | Cc1cccc(-c2ccccc2)c1C(=O)N(Cc1ccc2c(c1)OCO2)C1Cc2ccccc2C1 [compound 129, N-(1,3-benzodioxol-5-ylmethyl)-N-(indan-2-yl)-3-methyl-1,1′-biphenyl-2-carboxamide]
29 | < 1000 nM |  | COc1cccc(CN(C(=O)c2cc(Cl)ccc2-c2ccccc2)C2Cc3ccccc3C2)c1 [compound 140, 4-chloro-N-(indan-2-yl)-N-(3-methoxybenzyl)-1,1′-biphenyl-2-carboxamide]
30 | < 1000 nM |  | O=C(c1ccccc1-c1ccccc1F)N(Cc1ccc(F)cc1)C1Cc2ccccc2C1 [compound 93, N-(indan-2-yl)-2′-fluoro-N-(4-fluorobenzyl)-1,1′-biphenyl-2-carboxamide]
31 | < 1000 nM |  | COc1cccc(-c2ccccc2C(=O)N(Cc2cccc(C)c2)C2Cc3ccccc3C2)c1 [compound 98, N-(indan-2-yl)-3′-methoxy-N-(3-methylbenzyl)-1,1′-biphenyl-2-carboxamide]
32 |  | < 1000 nM | Cc1ccc(CN(C(=O)c2c(-c3ccccc3)ccc3ccccc23)C2Cc3ccccc3C2)cc1 [compound 240, 2-Phenyl-naphthalene 1-carboxylic acid (4-methyl-benzyl)-indan-2-yl-amide]
33 | < 1000 nM |  | O=C(c1cc(Cl)ccc1-c1ccccc1)N(Cc1ccc(F)cc1)C1Cc2ccccc2C1 [compound 136, 4-chloro-N-(indan-2-yl)-N-(4-fluorobenzyl)-1,1′-biphenyl-2-carboxamide]
34 | < 1000 nM |  | Cc1ccccc1CN(C(=O)c1cc(Cl)ccc1-c1ccccc1)C1Cc2ccccc2C1 [compound 131, 4-chloro-N-(indan-2-yl)-N-(2-methylbenzyl)-1,1′-biphenyl-2-carboxamide]
35 | < 1000 nM |  | Cc1ccc(-c2ccccc2C(=O)N(Cc2ccccc2C)C2Cc3ccccc3C2)cc1 [compound 100, N-(indan-2-yl)-4′-methyl-N-(2-methylbenzyl)-1,1′-biphenyl-2-carboxamide]
36 | < 1000 nM |  | Cc1ccc(-c2ccccc2C(=O)N(Cc2cccc(C)c2)C2Cc3ccccc3C2)cc1 [compound 97, N-(indan-2-yl)-4′-methyl-N-(3-methylbenzyl)-1,1′-biphenyl-2-carboxamide]
37 | < 1000 nM |  | Cc1cccc(-c2ccccc2)c1C(=O)N(Cc1cccc(F)c1)C1Cc2ccccc2C1 [compound 124, N-(indan-2-yl)-N-(3-fluorobenzyl)-3-methyl-1,1′-biphenyl-2-carboxamide]
38 | < 1000 nM |  | O=C(c1c(O)cccc1-c1ccccc1)N(Cc1ccccc1)C1Cc2ccccc2C1 [compound 69, N-benzyl-N-(indan-2-yl)-3-hydroxy-1,1′-biphenyl-2-carboxamide]
